For 28 compounds, MIC50 and Activity results are on record in ChEMBL document CHEMBL1150358, “Substituted benzyl-pyrimidines targeting thymidine monophosphate kinase of Mycobacterium tuberculosis: synthesis and in vitro anti-mycobacterial activity” (Bioorg Med Chem, 2008).

For the experiment, the system named is Mycobacterium tuberculosis. In words: Antimicrobial activity against Mycobacterium bovis BCG 1173P2 after 8 days. The class given is functional. The note with it: variant bovis BCG; for MIC50: 192 h.

≈ marks a conversion by molar mass, not a printed value. Calls of active or inactive are those of the source. No cut-off for these calls is given here.

For `O=C(O)CCCCc1ccc(Cn2cc(Br)c(=O)[nH]c2=O)cc1`, the MIC50 (in general, the lowest concentration that inhibits either 50% of growth or 50% of the strains tested, depending on the study) is 100 µg/mL (≈ 262 µM).
Turning to `Cc1cn(Cc2ccc(CCCCC(=O)O)cc2)c(=O)[nH]c1=O`, the MIC50 was determined as 120 µg/mL (≈ 379 µM).
As to `NC(=O)CCCCCc1ccc(Cn2cc(Br)c(=O)[nH]c2=O)cc1`, the result was inactive.
The compound `NC(=O)CCCc1ccc(Cn2ccc(=O)[nH]c2=O)cc1` registered an MIC50 of 270 µg/mL (≈ 940 µM).
In turn, `Cc1cn(Cc2ccc(C#CCCCC(=O)O)cc2)c(=O)[nH]c1=O` gave an MIC50 of 150 µg/mL (≈ 460 µM).
Turning to `Cc1cn(Cc2ccc(CCCCO)cc2)c(=O)[nH]c1=O`, the MIC50 worked out at 365 µg/mL (≈ 1270 µM).
With `NC(=O)CCCc1ccc(Cn2cc(Br)c(=O)[nH]c2=O)cc1`, the MIC50 amounted to 55 µg/mL (≈ 150 µM).
`Cc1cn(Cc2ccc(CCCCCC(=O)O)cc2)c(=O)[nH]c1=O` yielded an MIC50 of 195 µg/mL (≈ 590 µM).
On the same count and under the same terms, for `Cc1cn(Cc2ccc(CCCCCC(N)=O)cc2)c(=O)[nH]c1=O` the value was 230 µg/mL (≈ 698 µM).
For the compound `NC(=O)CCCCCc1ccc(Cn2cc(Cl)c(=O)[nH]c2=O)cc1`, the MIC50 worked out at 288 µg/mL (≈ 823 µM).
The compound `O=C(O)CCCc1ccc(Cn2cc(Br)c(=O)[nH]c2=O)cc1` came in with an MIC50 of 50 µg/mL (≈ 136 µM).
`NC(=O)CCCc1ccc(Cn2cc(Cl)c(=O)[nH]c2=O)cc1` had an MIC50 of 51 µg/mL (≈ 159 µM).
As to `O=c1[nH]c(=O)n([C@H]2C[C@H](O)[C@@H](CO)O2)cc1Br` [BROXURIDINE], the result was inactive.
For the compound `O=C(O)CCCCCc1ccc(Cn2cc(Br)c(=O)[nH]c2=O)cc1`, the MIC50 was determined as 80 µg/mL (≈ 202 µM).
On to `Cc1cn(Cc2ccc(CCCCC(N)=O)cc2)c(=O)[nH]c1=O`, for which the outcome was inactive.
In the case of `CCCCCCc1ccc(Cn2cc(Cl)c(=O)[nH]c2=O)cc1`, the outcome was inactive.
With `COC(=O)CCCc1ccc(Cn2cc(Br)c(=O)[nH]c2=O)cc1`, the MIC50 worked out at 180 µg/mL (≈ 472 µM).
With `NC(=O)CCCCc1ccc(Cn2cc(Br)c(=O)[nH]c2=O)cc1`, the outcome was inactive.
In the case of `O=C(O)CCCc1ccc(Cn2ccc(=O)[nH]c2=O)cc1`, the MIC50 worked out at 225 µg/mL (≈ 780 µM).
With `CCCCc1ccc(Cn2cc(Br)c(=O)[nH]c2=O)cc1`, the outcome was inactive.
In the case of `CCCCCCc1ccc(Cn2cc(Br)c(=O)[nH]c2=O)cc1`, the result was inactive.
Still for that read-out and setting: for `Cc1cn([C@H]2C[C@H](O)[C@@H](CO)O2)c(=O)[nH]c1=O` [DOXRIBTIMINE] the value was “inactive”; for `Cc1cn(Cc2ccc(Br)cc2)c(=O)[nH]c1=O`, “inactive”.
Turning to `O=C(O)CCCc1ccc(Cn2cc(Cl)c(=O)[nH]c2=O)cc1`, the MIC50 amounted to 45 µg/mL (≈ 139 µM).
In the case of `O=C(O)CCCCc1ccc(Cn2cc(Cl)c(=O)[nH]c2=O)cc1`, the MIC50 is 120 µg/mL (≈ 356 µM).
On the same count and under the same terms, for `COC(=O)CCCc1ccc(Cn2cc(Cl)c(=O)[nH]c2=O)cc1` the value was 260 µg/mL (≈ 772 µM).
As to `CCCCc1ccc(Cn2cc(Cl)c(=O)[nH]c2=O)cc1`, the result was inactive.
The compound `O=C(O)CCCCCc1ccc(Cn2cc(Cl)c(=O)[nH]c2=O)cc1` yielded an MIC50 of 125 µg/mL (≈ 356 µM).
